Results: patent publication US6358885B1, “Substituted phenylheterocyclic herbicides” (Mississippi State University, priority 1992, dated 2002)

Legend:
arrowhead = test: Test D paddy water application plant response rating 0 to 100; type: in vivo, Sagittaria spp.; settings: 0 to 100 scale, approx. 21 days
From the text: (§1) Plastic pots were partially filled with silt loam soil. The soil was then saturated with water. […] After planting, water levels were raised to 3 cm above the soil surface and maintained at this level throughout the test. Chemical treatments were formulated in a non-phytotoxic solvent and applied directly to the paddy water. Treated plants and controls were maintained in a greenhouse for approximately 21 days, after which all species were compared to controls and visually evaluated. […] A dash (-) response means no test result.

duck salad = test: as above; type: in vivo, Heteranthera limosa; settings: 0 to 100 scale, approx. 21 days
From the text: as §1

umbrella sedge = test: as above; type: in vivo, Cyperus difformis; settings: 0 to 100 scale, approx. 21 days
From the text: as §1

Japonica rice [1] = test: as above; type: in vivo, Oryza sativa; settings: 0 to 100 scale, approx. 21 days
From the text: as §1

barnyardgrass [2] = test: as above; type: in vivo, Echinochloa crus-galli; settings: 0 to 100 scale, approx. 21 days
From the text: as §1

Japonica rice [3] = test: Test E paddy water application plant response rating 0 to 100; type: in vivo, oryza sativa; settings: Flood, 0 to 100 scale, approx. 21 days
From the text: (§2) Plastic pots were partially filled with silt loam soil. […] At testing, the water level for all plantings was raised to 2 cm above the soil surface. Chemical treatments were formulated in a non-phytotoxic solvent and applied directly to the paddy water. Treated plants and controls were maintained in a greenhouse for approximately 21 days, after which all species were compared to controls and visually evaluated. […] A dash (-) response means no test result.

barnyardgrass [4] = test: as above; type: in vivo, Echinochloa crus-galli; settings: Flood, 0 to 100 scale, approx. 21 days
From the text: as §2

waterchestnut = test: Test D paddy water application plant response rating 0 to 100; type: in vivo, Eleocharis spp.; settings: 0 to 100 scale, approx. 21 days
From the text: as §1

CC(C)N1C(=O)COc2cc(F)c(-c3nn4c(c3Cl)CCCC4)cc21 [Compound 31]
Arrowhead plant response rating (arrowhead; Rate 4 g/ha): 50 | Arrowhead plant response rating (arrowhead; Rate 8 g/ha): 60 | Arrowhead plant response rating (arrowhead; Rate 16 g/ha): 85 | Arrowhead plant response rating (arrowhead; Rate 32 g/ha): 100 | Arrowhead plant response rating (arrowhead; Rate 64 g/ha): 100 | Duck salad plant response rating (duck salad; Rate 4 g/ha): 0 | Duck salad plant response rating (duck salad; Rate 8 g/ha): 0 | Duck salad plant response rating (duck salad; Rate 16 g/ha): 0 | Duck salad plant response rating (duck salad; Rate 32 g/ha): 0 | Duck salad plant response rating (duck salad; Rate 64 g/ha): 0 | Umbrella sedge plant response rating (umbrella sedge; Rate 4 g/ha): 0 | Umbrella sedge plant response rating (umbrella sedge; Rate 8 g/ha): 0 | Umbrella sedge plant response rating (umbrella sedge; Rate 16 g/ha): 20 | Umbrella sedge plant response rating (umbrella sedge; Rate 32 g/ha): 65 | Umbrella sedge plant response rating (umbrella sedge; Rate 64 g/ha): 75 | Japonica rice plant response rating (Japonica rice [1]; Rate 4 g/ha): 10 | Japonica rice plant response rating (Japonica rice [1]; Rate 8 g/ha): 15 | Japonica rice plant response rating (Japonica rice [1]; Rate 16 g/ha): 20 | Japonica rice plant response rating (Japonica rice [1]; Rate 32 g/ha): 25 | Japonica rice plant response rating (Japonica rice [1]; Rate 64 g/ha): 30 | Barnyardgrass 2 plant response rating (barnyardgrass [2]; Rate 4 g/ha): 0 | Barnyardgrass 2 plant response rating (barnyardgrass [2]; Rate 8 g/ha): 0 | Barnyardgrass 2 plant response rating (barnyardgrass [2]; Rate 16 g/ha): 30 | Barnyardgrass 2 plant response rating (barnyardgrass [2]; Rate 32 g/ha): 40 | Barnyardgrass 2 plant response rating (barnyardgrass [2]; Rate 64 g/ha): 60

C#CCN1C(=O)COc2cc(F)c(-c3nn4c(c3Cl)CCCC4)cc21 [Compound 34]
Arrowhead plant response rating (arrowhead; Rate 4 g/ha): 85 | Arrowhead plant response rating (arrowhead; Rate 8 g/ha): 90 | Arrowhead plant response rating (arrowhead; Rate 16 g/ha): 90 | Arrowhead plant response rating (arrowhead; Rate 32 g/ha): 100 | Arrowhead plant response rating (arrowhead; Rate 64 g/ha): 100 | Duck salad plant response rating (duck salad; Rate 4 g/ha): 0 | Duck salad plant response rating (duck salad; Rate 8 g/ha): 0 | Duck salad plant response rating (duck salad; Rate 16 g/ha): 0 | Duck salad plant response rating (duck salad; Rate 32 g/ha): 0 | Duck salad plant response rating (duck salad; Rate 64 g/ha): 60 | Umbrella sedge plant response rating (umbrella sedge; Rate 4 g/ha): 0 | Umbrella sedge plant response rating (umbrella sedge; Rate 8 g/ha): 20 | Umbrella sedge plant response rating (umbrella sedge; Rate 16 g/ha): 50 | Umbrella sedge plant response rating (umbrella sedge; Rate 32 g/ha): 70 | Umbrella sedge plant response rating (umbrella sedge; Rate 64 g/ha): 80 | Japonica 1 plant response rating (Japonica rice [3]; Rate 16 g/ha): 75 | Japonica 2 plant response rating (Japonica rice [3]; Rate 16 g/ha): 25 | Japonica 1 plant response rating (Japonica rice [3]; Rate 32 g/ha): 85 | Japonica 2 plant response rating (Japonica rice [3]; Rate 32 g/ha): 30 | Japonica 1 plant response rating (Japonica rice [3]; Rate 64 g/ha): 95 | Japonica 2 plant response rating (Japonica rice [3]; Rate 64 g/ha): 45 | Japonica 1 plant response rating (Japonica rice [3]; Rate 125 g/ha): 98 | Japonica 2 plant response rating (Japonica rice [3]; Rate 125 g/ha): 60 | Japonica 1 plant response rating (Japonica rice [3]; Rate 250 g/ha): 100 | Japonica 2 plant response rating (Japonica rice [3]; Rate 250 g/ha): 95 | Japonica rice plant response rating (Japonica rice [1]; Rate 4 g/ha): 20 | Japonica rice plant response rating (Japonica rice [1]; Rate 8 g/ha): 30 | Japonica rice plant response rating (Japonica rice [1]; Rate 16 g/ha): 55 | Japonica rice plant response rating (Japonica rice [1]; Rate 32 g/ha): 40 | Japonica rice plant response rating (Japonica rice [1]; Rate 64 g/ha): 50 | Barnyardgrass 2 plant response rating (barnyardgrass [4]; Rate 16 g/ha): 85 | Barnyardgrass 3 plant response rating (barnyardgrass [4]; Rate 16 g/ha): 35 | Barnyardgrass 2 plant response rating (barnyardgrass [4]; Rate 32 g/ha): 90 | Barnyardgrass 3 plant response rating (barnyardgrass [4]; Rate 32 g/ha): 45 | Barnyardgrass 2 plant response rating (barnyardgrass [4]; Rate 64 g/ha): 95 | Barnyardgrass 3 plant response rating (barnyardgrass [4]; Rate 64 g/ha): 45 | Barnyardgrass 2 plant response rating (barnyardgrass [4]; Rate 125 g/ha): 100 | Barnyardgrass 3 plant response rating (barnyardgrass [4]; Rate 125 g/ha): 50 | Barnyardgrass 2 plant response rating (barnyardgrass [4]; Rate 250 g/ha): 100 | Barnyardgrass 3 plant response rating (barnyardgrass [4]; Rate 250 g/ha): 95 | Waterchestnut plant response rating (waterchestnut; Rate 4 g/ha): 20 | Waterchestnut plant response rating (waterchestnut; Rate 8 g/ha): 20 | Waterchestnut plant response rating (waterchestnut; Rate 32 g/ha): 20 | Waterchestnut plant response rating (waterchestnut; Rate 64 g/ha): 20 | Barnyardgrass 2 plant response rating (barnyardgrass [2]; Rate 4 g/ha): 0 | Barnyardgrass 2 plant response rating (barnyardgrass [2]; Rate 8 g/ha): 10 | Barnyardgrass 2 plant response rating (barnyardgrass [2]; Rate 16 g/ha): 20 | Barnyardgrass 2 plant response rating (barnyardgrass [2]; Rate 32 g/ha): 30 | Barnyardgrass 2 plant response rating (barnyardgrass [2]; Rate 64 g/ha): 50
